The results in this text go back to patent US11878070B2, “Silk-based moisturizer compositions and methods thereof” (Evolved By Nature, Inc., priority 2015, dated 2024).

What all share (type): physicochemical
The nature of data set [1]: Silk gel formation (days to gelation / time to gel). Conditions: 100 mg of vitamin C derivative in 15 mL of 2% silk solution. An excerpt: Samples 1-10 were used to examine the effect of silk to vitamin C ratio on serum gelation. Samples 1-3 with less vitamin C gelled quicker than samples 4 and 5. All other conditions were kept constant. Samples 6-8 with less vitamin C gelled quicker than samples 9 and 10. All other conditions were kept constant. It is concluded that decreasing the ratio of silk to vitamin C (increasing the amount of vitamin C) will lengthen the time to gel creation.
Samples 1, 3, 6, 8, O-1, O-2, O-3, and O-4 were used to examine the effect of temperature treatment on serum gelation time. Samples 1, 6, O-1, and O-2 were identical other than temperature treatment. Samples 3, 8, O-3, and O-4 were identical other than temperature treatment. The two groups differed in silk to vitamin C ratio. Time to serum gelation was directly related to temperature treatment with a higher temperature resulting in quicker serum gelation.
All treatments of silk solution for gel solution were in a conical tube at room temperature unless otherwise stated. […] Temperature affected gel creation time with higher temperatures resulting in quicker gel times. 50° C. treatment gelled in as quick as 2 days, 37° C. treatment gelled in as quick as 3 days, room temperature treatment gelled in 5-8 days and storage in a refrigerator took at least 39 days to gel. The effects of additives on gel creation were dependent on the additive. Vitamin E, Rosemary Oil and Rose Oil all had no effect on gel creation. […] Each also required the presence of vitamin C to gel. Lemon juice from a fresh lemon, pre-squeezed lemon juice from a plastic lemon container and lemon grass oil did affect gel creation. […] Both lemon juice types were able to cause gelation without the presence of vitamin C. This occurred in the same number of days as with vitamin C. The lemongrass oil was able to decrease the number of days to gelation to 2-3 days. Ail additives appeared soluble other than lemongrass oil and rose oil. Rose oil remained in yellow bubbles while the lemongrass oil was partially soluble and formed an albumen like chunk. […]

Data set [2] is described as follows: Dissolution of vitamin C derivative in aqueous silk solution. An excerpt:
Ascorbyl tetraisopalmitate is a highly viscous, oil soluble liquid that might need the help of an emulsifier to possible dissolve in aqueous silk solution.

Data set [3] is described as follows: HPLC chromatograms of samples comprising vitamin C (degradation products). The conditions noted are these: after 1 hour at ambient conditions without chemical stabilization. The procedure:
No degradation products were visible.
No degradation products were visible. FIG. 59 is a table summarizing the vitamin C concentration in silk protein fragment-films (2% silk films air dried at RT) of the present disclosure. In FIG. 59 processing conditions included 100° C. extraction for 20 min, RT rinse, LiBr in 60° C. oven for 4-6 hours, FIG. 60 is a table summarizing the stability of vitamin C in chemically stabilized solutions. FIGS. 89A-89B are tables summarizing vitamin C stability in SPF gels without chemical stabilizers as compared to chemically stabilized vitamin C in competitive anti-aging skincare products. […] Without wishing to be bound by theory, it appears there is a relationship between vitamin C concentration, silk concentration, and gelation. An increase in vitamin C at a given concentration of silk will result in a longer time to gelation or inhibit gelation. This may be due to the vitamin C molecule physically blocking interaction between silk protein fragments or cross-linking of silk protein.

Take `O=C1O[C@H]([C@@H](O)CO)C(O)=C1O[C@H]1O[C@H](CO)[C@@H](O)[C@H](O)[C@H]1O` [Ascorbic acid-2-glucoside, Ascorbic Acid-2-Glucoside]: the “time to gel formation” value in data set [1] worked out at 3 days.
For `CCCCCCCCC(CCCCCC)C(=O)OC[C@H](OC(=O)C(CCCCCC)CCCCCCCC)[C@H]1OC(=O)C(OC(=O)C(CCCCCC)CCCCCCCC)=C1OC(=O)C(CCCCCC)CCCCCCCC` (some centres unmarked) [Ascorbyl tetraisopalmitate, Ascorbyl Tetraisopalmitate], the “ability to dissolve or be dispersed in aqueous silk solution” value in data set [2] is reported as “unable to dissolve or be dispersed”.
With `O=C1O[C@H]([C@@H](O)CO)C([O-])=C1OP(=O)([O-])[O-].[Na+].[Na+].[Na+]` [Sodium ascorbyl phosphate from Aromantic, Sodium Ascorbyl Phosphate], the “time to gel formation” value in data set [1] was “failed to create a gel”.
Same read-out and setting: in the case of `O=C1O[C@H]([C@@H](O)CO)C([O-])=C1OP(=O)([O-])[O-].[Na+].[Na+].[Na+]` [Sodium ascorbyl phosphate from DSM, Sodium Ascorbyl Phosphate] it was 28 days.
For the compound `O=C1O[C@H]([C@@H](O)CO)C(O)=C1O` [vitamin C, L-ascorbic acid], the “degradation products (HPLC)” value in data set [3] is “degradation products are visible”.
